# Measured values as given in US20020042400A1, “Novel alicyclic imidazoles as H3 agents” (priority 2000, published 2002).
# Where a name gives a salt, the structure may show the parent alone. Read-outs that look alike come from different tables or passages of the source.
# Tests used:
# Histamine H3 receptor [1] = molecular target: T1, Histamine H3 receptor (Rattus norvegicus, UniProt Q9QYN8); test: Histamine H3 receptor competition binding with [^3H]NAMHA in rat cerebral cortical membranes
# Protocol: Histamine H3 receptor affinity was determined in rat cerebral cortical membranes with [^3H]NAMHA as previously described (Tedford et al., 1995). Animals were euthanized by rapid decapitation and cerebral cortical tissues were harvested and frozen on dry ice. Cerebral cortical membranes were prepared in 50 mM sodium-phosphate buffered saline (pH 7.5 at 4° C.) containing: EDTA (10 mM), phenylmethylsulfonyl fluoride (0.1 mM), chymostatin and leupeptin (each 0.2 mg/50 mL). The final membrane pellets were resuspended in water and stored frozen at −80° C. prior to use. Protein concentrations were determined using the Coomassie Plus Protein Assay (Pierce, Rockford Ill.).
# Competition binding was carried out in a total volume of 0.2 mL of 50 mM sodium-phosphate buffer (pH 7.4) using ˜1 nM [^3H]NAMHA ([^3H]—N^α-methylhistamine, available from NEN Research Products of Boston, Mass.) and 0.003 to […] concentrations of the test compounds. Non-specific binding was determined using 10 μM thioperamide. Samples were incubated for 40 minutes at 25° C. and subsequently filtered through Whatman GF/C glass fiber filters pre-soaked in binding buffer with 0.3% polyethyleneimine, using an Inotech cell harvester (Inotech Biosystems International, Lansing Mich.). The filters were rapidly washed three times with Tris-NaCl buffer (25 and 145 mM, respectively, pH 7.4, 4° C.). Samples were quantitated using Ecolume scintillation cocktail (ICN Biomedicals; Costa Mesa Calif.) and a Packard model 1900TR liquid scintillation analyzer (Packard Instrument Co., Downers Grove Ill.). IC50 values were extrapolated from a plot of receptor occupancy (i.e. % bound) vs. log [competitor].
# Histamine H3 receptor [2] = molecular target: T1, Histamine H3 receptor; details: radioligand Kd used in the Ki equation; read-out: Kd for [^3H]NAMHA; cited from earlier work
# [3] = rat cerebral cortical membranes, ~1 nM [^3H]NAMHA, 40 minutes at 25° C., Ki=IC50/(1+([ligand]/[Kd]), read-out: Ki
# T1 sequence (Q9QYN8 whole entry): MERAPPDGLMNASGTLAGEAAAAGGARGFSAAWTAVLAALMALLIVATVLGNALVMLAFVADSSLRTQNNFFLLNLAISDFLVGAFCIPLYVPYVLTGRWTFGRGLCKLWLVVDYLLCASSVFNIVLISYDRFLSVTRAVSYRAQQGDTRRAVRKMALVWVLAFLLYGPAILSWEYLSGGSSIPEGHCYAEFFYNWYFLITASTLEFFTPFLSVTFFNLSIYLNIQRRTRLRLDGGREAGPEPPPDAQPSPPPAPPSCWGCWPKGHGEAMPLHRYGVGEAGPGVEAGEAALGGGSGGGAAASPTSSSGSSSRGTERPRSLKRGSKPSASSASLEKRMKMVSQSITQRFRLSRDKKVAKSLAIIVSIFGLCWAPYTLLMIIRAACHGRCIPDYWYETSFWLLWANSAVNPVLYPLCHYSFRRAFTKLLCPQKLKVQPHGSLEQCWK
Compound,Ki (Histamine H3 receptor [1]; [3]) [nM],also measured
"N#C[C@@H]1C[C@H]1c1c[nH]cn1 (relative stereo) [Example 1, 4-(trans-2-cyano-cyclopropyl) Imidazole Trifluoroacetic Acid Salt]",20,
"NC(=O)[C@@H]1C[C@H]1c1c[nH]cn1 (relative stereo) [Example 2, 4-(trans-2-aminocarbonyl-cyclopropyl) Imidazole Trifluoroacetic Acid Salt]",127,
"N=C(N)[C@@H]1C[C@H]1c1c[nH]cn1 (relative stereo) [Example 3, 4-(trans-2-amidino-cyclopropyl) Imidazole Di-trifluoroacetic Acid Salt]",6.7,
"NC[C@@H]1C[C@H]1c1c[nH]cn1 (relative stereo) [Example 4, 4-(trans-2-aminomethyl-cyclopropyl) Imidazole Di-hydrochloric Acid Salt]",,Ki (Histamine H3 receptor [1]): 4.5 nM
"OC[C@@H]1C[C@H]1c1c[nH]cn1 (relative stereo) [Example 6, 4-(trans-2-hydroxymethyl-cyclopropyl) Imidazole Trifluoroacetic Acid Salt]",263,
"CNC(=N)[C@@H]1C[C@H]1c1c[nH]cn1 (relative stereo) [Example 7, 4-(trans-2-N-methylamidino-cyclopropyl) Imidazole Di-hydrochloric Acid Salt]",114,
"O/N=C/C1CC1c1c[nH]cn1 (stereo not drawn) [Example 5, 4-(trans-2-N-hydroxyimino-cyclopropyl) Imidazole]",23,
"CNCCc1cnc[nH]1 [[^3H]NAMHA, [^3H]—N^α-methylhistamine]",,Kd (Histamine H3 receptor [2]): 0.4 nM
